# Test results: patent US4416877A, “Anti-atherosclerotic pharmaceutical compositions containing diphosphonate compounds” (priority 1979, dated 1983)
# “Also recorded” adds a separate entry of the source.
# System: tissue cholesterol
# Assay: Effects in cholesterol fed rats (serum, liver and aorta lipids)
# Format: in vivo
# Details: Rattus norvegicus; cholesterol fed rats (C.F), 200 mg/kg/day; read-out: Liver Chol. (% control values)
# Procedure: Effects of diphosphonates of formula (I) in cholesterol fed rats
# In order to increase tissue cholesterol, especially liver, rats were fed a high fat-high cholesterol diet for 10 days to 3 months, with the following diet composition: casein 20%, butter 37%, cellulose 9.1%, dextrose 18,9%, cholesterol 4.5%, sodium cholate 1.8%, minerals 7.3%, vitamins 1%, choline 0.4%.
# The rats were then fed normal food and were treated for 10 days to 3 months with different compounds (200 mg/kg/day). Serum parameters described above were measured. Liver and aorta lipids were extracted according to J. Folch et al (J. Biochem. 226, 497, 1957). Total lipids were determined by the sulfophosphovanillic reaction (see N. Zolner and K. Kirsch, Z. Ges. exp. Med. 135, 545, 1962) and cholesterol by the Liebermann-Burchard reaction or appropriate enzymatic reaction.
# (§1) In above Table IV, results are given as % control values. Except for serum calcium, values which differ from control values by less than 15% are considered as non significant (NS).
# Serum free fatty acids, triglycerides and phospholipids were measured in normal rats (N) and rats previously fed a cholesterol diet for 10 days (C.F.)
# (§2) Serum α/β cholesterol, total lipids and cholesterol of liver and aorta were determined in normal rats (N) and rats which had previously been fed on high cholesterol diet (C.F.)
row,Compound,change in vivo at 200 mg/kg/day [%]
1,"COP(=O)(OC)C(O)(c1ccc(Cl)cc1)P(=O)(OC)OC [Compound 4, Tetramethyl 1-(p-chlorophenyl)methane 1-hydroxy 1,1-diphosphonate]",-56
2,"COP(=O)(OC)C(O)(C(C)(C)Oc1ccc(Cl)cc1)P(=O)(OC)OC [Compound 7, Tetramethyl 2,2-dimethyl 2(p-chlorophenoxy) ethane 1-hydroxy 1,1-diphosphonate]",-25

# Same assay, conditions: Rattus norvegicus; cholesterol fed rats (C.F), 200 mg/kg/day; read-out: Liver Total Lipids (% control values)
row,Compound,change in vivo at 200 mg/kg/day [%]
1,"COP(=O)(OC)C(O)(c1ccc(Cl)cc1)P(=O)(OC)OC [Compound 4, Tetramethyl 1-(p-chlorophenyl)methane 1-hydroxy 1,1-diphosphonate]",-31
2,"COP(=O)(OC)C(O)(C(C)(C)Oc1ccc(Cl)cc1)P(=O)(OC)OC [Compound 7, Tetramethyl 2,2-dimethyl 2(p-chlorophenoxy) ethane 1-hydroxy 1,1-diphosphonate]",< 15

# Same assay, conditions: cholesterol fed rats
row,Compound,liver total lipids and/or liver cholesterol
1,COP(=O)(OC)C(O)(c1ccccc1)P(=O)(OC)OC [Compound 2],decreased significantly
2,"COP(=O)(OC)C(O)(c1ccc(Cl)cc1)P(=O)(OC)OC [Compound 4, Tetramethyl 1-(p-chlorophenyl)methane 1-hydroxy 1,1-diphosphonate]",decreased significantly
3,"COP(=O)(OC)C(O)(C(C)(C)Oc1ccc(Cl)cc1)P(=O)(OC)OC [Compound 7, Tetramethyl 2,2-dimethyl 2(p-chlorophenoxy) ethane 1-hydroxy 1,1-diphosphonate]",decreased significantly

# Same assay, conditions: cholesterol fed rats (C.F), 200 mg/kg/day
Compound,Aorta Chol. (% control values),Aorta Total Lipids (% control values) [%],Liver Chol. (% control values) [%],Liver Total Lipids (% control values) [%],Serum Chol. α/β (% control values),Serum Free Fatty Acids (% control values) [%],Serum Phospholipids (% control values),Serum Triglycerides (% control values)
COP(=O)(OC)C(O)(c1ccccc1)P(=O)(OC)OC [Compound 2],"NS (Except for serum calcium, values which differ from control values by less than 15% are considered as non significant (NS))",-30,-50,-24,+88%,-56,"NS (Except for serum calcium, values which differ from control values by less than 15% are considered as non significant (NS))",-15%
"COP(=O)(OC)C(O)(c1ccc(Cl)cc1)P(=O)(OC)OC [Compound 4, Tetramethyl 1-(p-chlorophenyl)methane 1-hydroxy 1,1-diphosphonate]","NS (Except for serum calcium, values which differ from control values by less than 15% are considered as non significant (NS))",-47,–,–,+220%,-67,+21%,-21%
"COP(=O)(OC)C(O)(C(C)(C)Oc1ccc(Cl)cc1)P(=O)(OC)OC [Compound 7, Tetramethyl 2,2-dimethyl 2(p-chlorophenoxy) ethane 1-hydroxy 1,1-diphosphonate]",-19%,-27,–,–,+27%,-40,"NS (Except for serum calcium, values which differ from control values by less than 15% are considered as non significant (NS))","NS (Except for serum calcium, values which differ from control values by less than 15% are considered as non significant (NS))"

# System: lipid metabolism
# Assay: Effects of diphosphonates on lipid metabolism in normal rats (serum lipids, α/β cholesterol)
# Format: in vivo, male Wistar rats
# Details: Rattus norvegicus, po, normal rats (N), 200 mg/kg/day p.o.; read-out: Serum Chol. α/β (% control values)
# Procedure: Effects of diphosphonates of formula (I) on lipid metabolism in normal rats Groups of 4 to 5 normal male Wistar rats, weighing about 200 g were treated with diphosphonates (200 mg/kg/day) p.o. for 4 to 21 days. Water soluble compounds were given in solution in 24 mM bicarbonate buffer. Lipid soluble compounds were given in corn oil. The rats were weighed, sacrificed by decapitation (under light ether anesthesia) after overnight fasting. Blood was collected and serum used for analysis. The following blood parameters reflecting changes in lipid metabolism are reported: […]
# free fatty acids measured according to W. G. Duncombe (Clin. Acta 9, 122, 1964) triglycerides enzymatic method (Boehringer Mannheim Kit 126 012) phospholipids: molybdate/vanadate reaction (Boehringer Mannheim Kit 124 974) β-lipoprotein cholesterol was measured after heparin, CaCl2 precipitation according to M. Burstein et al. (La Presse Medicale 43, 974, 1958) and to D. Watson (Clin. Chim. Acta 5, 637, 1960).
# as §1
# as §2, with “Serum free fatty acids, triglycerides and phospholipids were measured in normal rats (N) and rats previously fed a cholesterol diet for 10 days (C.F.) Serum” for “Serum”
row,Compound,change in vivo at 200 mg/kg/day [%]
1,COP(=O)(OC)C(O)(c1ccc(C)cc1)P(=O)(OC)OC [Compound 3],< 15
2,COP(=O)(OC)C(O)(c1ccc(F)cc1)P(=O)(OC)OC [Compound 5],64
3,COP(=O)(OC)OC(c1ccccc1Cl)P(=O)(OC)OC (stereo not shown) [Compound 14],34
4,COP(=O)(OC)OC(c1cccc(Cl)c1)P(=O)(OC)OC (stereo not shown) [Compound 15],69
5,COP(=O)(OC)OC(c1ccc(F)cc1)P(=O)(OC)OC (stereo not shown) [Compound 17],81

# Same assay, conditions: Rattus norvegicus, po, normal rats (N), 200 mg/kg/day p.o.; read-out: Serum Free Fatty Acids (% control values)
row,Compound,change in vivo at 200 mg/kg/day [%]
1,COP(=O)(OC)C(O)(c1ccc(C)cc1)P(=O)(OC)OC [Compound 3],< 15
2,"COP(=O)(OC)C(O)(c1ccc(Cl)cc1)P(=O)(OC)OC [Compound 4, Tetramethyl 1-(p-chlorophenyl)methane 1-hydroxy 1,1-diphosphonate]",-48
3,"COP(=O)(OC)C(O)(C(C)(C)Oc1ccc(Cl)cc1)P(=O)(OC)OC [Compound 7, Tetramethyl 2,2-dimethyl 2(p-chlorophenoxy) ethane 1-hydroxy 1,1-diphosphonate]",28

# Same assay, conditions: Rattus norvegicus, po, normal rats (N), 200 mg/kg/day p.o.; read-out: Serum Phospholipids (% control values)
row,Compound,change in vivo at 200 mg/kg/day [%]
1,COP(=O)(OC)C(O)(c1ccc(C)cc1)P(=O)(OC)OC [Compound 3],< 15
2,"COP(=O)(OC)C(O)(c1ccc(Cl)cc1)P(=O)(OC)OC [Compound 4, Tetramethyl 1-(p-chlorophenyl)methane 1-hydroxy 1,1-diphosphonate]",43
3,"COP(=O)(OC)C(O)(C(C)(C)Oc1ccc(Cl)cc1)P(=O)(OC)OC [Compound 7, Tetramethyl 2,2-dimethyl 2(p-chlorophenoxy) ethane 1-hydroxy 1,1-diphosphonate]",26
4,COP(=O)(OC)OC(c1ccccc1Cl)P(=O)(OC)OC (stereo not shown) [Compound 14],22
5,COP(=O)(OC)OC(c1cccc(Cl)c1)P(=O)(OC)OC (stereo not shown) [Compound 15],< 15
6,COP(=O)(OC)OC(c1ccc(F)cc1)P(=O)(OC)OC (stereo not shown) [Compound 17],< 15

# Same assay, conditions: Rattus norvegicus, po, normal rats (N), 200 mg/kg/day p.o.; read-out: Serum Triglycerides (% control values)
row,Compound,change in vivo at 200 mg/kg/day [%]
1,COP(=O)(OC)C(O)(c1ccc(C)cc1)P(=O)(OC)OC [Compound 3],< 15
2,"COP(=O)(OC)C(O)(c1ccc(Cl)cc1)P(=O)(OC)OC [Compound 4, Tetramethyl 1-(p-chlorophenyl)methane 1-hydroxy 1,1-diphosphonate]",-24
3,COP(=O)(OC)C(O)(c1ccc(F)cc1)P(=O)(OC)OC [Compound 5],27
4,"COP(=O)(OC)C(O)(C(C)(C)Oc1ccc(Cl)cc1)P(=O)(OC)OC [Compound 7, Tetramethyl 2,2-dimethyl 2(p-chlorophenoxy) ethane 1-hydroxy 1,1-diphosphonate]",-33
5,COP(=O)(OC)OC(c1ccccc1Cl)P(=O)(OC)OC (stereo not shown) [Compound 14],-42
6,COP(=O)(OC)OC(c1cccc(Cl)c1)P(=O)(OC)OC (stereo not shown) [Compound 15],-37
7,COP(=O)(OC)OC(c1ccc(F)cc1)P(=O)(OC)OC (stereo not shown) [Compound 17],< 15

# Same assay, conditions: normal rats
row,Compound,"increased HDL lipids, especially HDL cholesterol"
1,COP(=O)(OC)C(O)(c1ccccc1)P(=O)(OC)OC [Compound 2],observed most dramatically
2,"COP(=O)(OC)C(O)(c1ccc(Cl)cc1)P(=O)(OC)OC [Compound 4, Tetramethyl 1-(p-chlorophenyl)methane 1-hydroxy 1,1-diphosphonate]",observed most dramatically
3,COP(=O)(OC)C(O)(c1ccc(F)cc1)P(=O)(OC)OC [Compound 5],observed most dramatically
4,COP(=O)(OC)OC(c1cccc(Cl)c1)P(=O)(OC)OC (stereo not shown) [Compound 15],observed most dramatically
5,COP(=O)(OC)OC(c1ccc(F)cc1)P(=O)(OC)OC (stereo not shown) [Compound 17],observed most dramatically

# Same assay, conditions: normal rats (N), 200 mg/kg/day p.o.
Compound,Serum Free Fatty Acids (% control values),Serum Phospholipids (% control values),Serum Triglycerides (% control values) [%]
COP(=O)(OC)C(O)(c1ccccc1)P(=O)(OC)OC [Compound 2],"NS (Except for serum calcium, values which differ from control values by less than 15% are considered as non significant (NS))",+25%,-21

# Same assay, conditions: rats
Compound,decreases in serum triglycerides,increase in serum phospholipid,α-cholesterol/β-cholesterol ratio / lipoprotein cholesterol
COP(=O)(OC)C(O)(c1ccccc1)P(=O)(OC)OC [Compound 2],Significant decreases,found to increase,highly significant activity
"COP(=O)(OC)C(O)(c1ccc(Cl)cc1)P(=O)(OC)OC [Compound 4, Tetramethyl 1-(p-chlorophenyl)methane 1-hydroxy 1,1-diphosphonate]",Significant decreases,found to increase; also recorded: at least two fold the most active,highly significant activity
COP(=O)(OC)C(O)(c1ccc(F)cc1)P(=O)(OC)OC [Compound 5],–,–,highly significant activity
"COP(=O)(OC)C(O)(C(C)(C)Oc1ccc(Cl)cc1)P(=O)(OC)OC [Compound 7, Tetramethyl 2,2-dimethyl 2(p-chlorophenoxy) ethane 1-hydroxy 1,1-diphosphonate]",Significant decreases,found to increase,–
COP(=O)(OC)OC(c1cccc(Cl)c1)P(=O)(OC)OC (stereo not shown) [Compound 15],–,–,highly significant activity
COP(=O)(OC)OC(c1ccc(F)cc1)P(=O)(OC)OC (stereo not shown) [Compound 17],–,–,highly significant activity
